Numbers after ± are expanded uncertainties.
How the values were obtained:
[1] = Liquid; for speed of sound: Frequency=4 MHz, Single path-length method; for mass density: Vibrating tube method
[2] = xn = mol fraction of the nth substance listed; conditions: Liquid, x1 = 1; for speed of sound: Frequency=4 MHz, Single path-length method; for mass density: Vibrating tube method

c1ccc2c(c1)CCCC2 [1,2,3,4-tetrahydronaphthalene]
[1]
Conditions	mass density, 100 kPa [kg/m3]	speed of sound, 100 kPa [m/s]	speed of sound, 5000 kPa [m/s]	speed of sound, 10000 kPa [m/s]	speed of sound, 15000 kPa [m/s]	speed of sound, 20000 kPa [m/s]	speed of sound, 25000 kPa [m/s]
313.15 K	952.93 ± 1.2	1413 ± 2	1434 ± 3	1455 ± 3	1475 ± 3	1495 ± 3	1513 ± 3
323.15 K	944.99 ± 1.2	1374 ± 2	1397 ± 3	1419 ± 3	1439 ± 3	1459 ± 3	1480 ± 3
333.15 K	937.04 ± 1.2	1335 ± 2	1359 ± 3	1383 ± 3	1402 ± 3	1425 ± 3	1445 ± 3

CCCCCCCCCC [decane]
[1]
Conditions	mass density, 100 kPa [kg/m3]	speed of sound, 100 kPa [m/s]	speed of sound, 5000 kPa [m/s]	speed of sound, 10000 kPa [m/s]	speed of sound, 15000 kPa [m/s]	speed of sound, 20000 kPa [m/s]	speed of sound, 25000 kPa [m/s]
313.15 K	714.87 ± 1	1177 ± 2	1209 ± 2	1243 ± 2	1274 ± 2	1303 ± 2	1327 ± 2
323.15 K	707.2 ± 1	1139 ± 2	1174 ± 2	1207 ± 2	1238 ± 2	1269 ± 2	1296 ± 2
333.15 K	699.47 ± 1	1099 ± 2	1134 ± 2	1171 ± 2	1204 ± 2	1234 ± 2	1264 ± 2

CCCCCCCCCC [decane] + c1ccc2c(c1)CCCC2
[2]
Conditions	mass density, 100 kPa [kg/m3]	speed of sound, 100 kPa [m/s]	speed of sound, 5000 kPa [m/s]	speed of sound, 10000 kPa [m/s]	speed of sound, 15000 kPa [m/s]	speed of sound, 20000 kPa [m/s]	speed of sound, 25000 kPa [m/s]
313.15 K	714.87 ± 1	1177 ± 2	1209 ± 2	1243 ± 2	1274 ± 2	1303 ± 2	1327 ± 2
323.15 K	707.2 ± 1	1139 ± 2	1174 ± 2	1207 ± 2	1238 ± 2	1269 ± 2	1296 ± 2
333.15 K	699.47 ± 1	1099 ± 2	1134 ± 2	1171 ± 2	1204 ± 2	1234 ± 2	1264 ± 2

CCCCCCCCCCCCCCCC [hexadecane]
[1]
Conditions	mass density, 100 kPa [kg/m3]	speed of sound, 100 kPa [m/s]	speed of sound, 5000 kPa [m/s]	speed of sound, 10000 kPa [m/s]	speed of sound, 15000 kPa [m/s]	speed of sound, 20000 kPa [m/s]	speed of sound, 25000 kPa [m/s]
313.15 K	759.55 ± 1	1283 ± 2	1311 ± 2	1340 ± 2	1366 ± 2	1391 ± 2	1416 ± 2
323.15 K	752.64 ± 1	1248 ± 2	1278 ± 2	1307 ± 2	1335 ± 2	1361 ± 2	1387 ± 2
333.15 K	745.73 ± 1	1212 ± 2	1242 ± 2	1273 ± 2	1301 ± 2	1328 ± 2	1354 ± 2

CCCCCCCCCCCCCCCC [hexadecane] + c1ccc2c(c1)CCCC2
[2]
Conditions	mass density, 100 kPa [kg/m3]	speed of sound, 100 kPa [m/s]	speed of sound, 5000 kPa [m/s]	speed of sound, 10000 kPa [m/s]	speed of sound, 15000 kPa [m/s]	speed of sound, 20000 kPa [m/s]	speed of sound, 25000 kPa [m/s]
313.15 K	759.55 ± 1	1283 ± 2	1311 ± 2	1340 ± 2	1366 ± 2	1391 ± 2	1416 ± 2
323.15 K	752.64 ± 1	1248 ± 2	1278 ± 2	1307 ± 2	1335 ± 2	1361 ± 2	1387 ± 2
333.15 K	745.73 ± 1	1212 ± 2	1242 ± 2	1273 ± 2	1301 ± 2	1328 ± 2	1354 ± 2
